# Laboratory results published in patent US9926573B2, “Glyphosate-tolerant gene and use thereof” (priority 2012, dated 2018).
# Residue numbers refer to the chain shown, from its start. pEC50: −log10 of the molar value.
# Experiments:
# EPSPase [1] = assay: Ex-vivo EPSPase activity assay, crude extract; assay type: biochemical, wide-type Arabidopsis thaliana
# Experimental: (§1) 0.5 g of the seedlings of Ophiopogon japonicus, Liriope spicata, Liriope platyphylla and wide-type Arabidopsis thaliana were weighed, added with 150 ml of an extraction buffer A [containing 100 mmol/L Tris pH 7.5, 1 mmol/L EDTA, 10% (V/V) glycerol, 1 mg/L BSA, 10 mmol/L Vitamin C (Vc), 1 mmol/L benzamidine, 5 mmol/L DTT, and 20 mg/ml PVPP], ground and homogenized, filtered through 6 layers of gauze, and centrifuged at 12000 rpm and 4° C. […] Following the method as described by Lanzetta and Alvarez (1979), the reaction was developed for 30 min by adding 800 μl of malachite green hydrochloride, and then 100 μl of a 34% sodium citrate solution was added. After 30 min, the OD660 value was determined at 660 nm on a spectrophotometer. […] Logistic regression analysis was performed and the ED50 was calculated.
# [2] = test system: callus of the transgenic Arabidopsis thaliana; assay: Callus growth on glyphosate-containing MS medium, LS-EPSPS transgenic; assay type: cell-based; details: two weeks, 25° C.
# Experimental: (§2) The transgenic Arabidopsis thaliana plant was obtained by screening. The stem of the tissue cultured seedling of the non-transgenic and the LS-EPSPS transgenic Arabidopsis thaliana was used as an explant for callus induction in an MS medium containing 2.0 mg/L of 6-BA and 0.1 mg/L of NAA. […] The results were statistically calculated after two weeks.
# EPSPase [3] = target: T1, EPSPase (Liriope muscari (Liriope platyphylla), UniProt A0A0N9BED7); assay: Ex-vivo EPSPase activity assay, crude extract; assay type: biochemical; details: 25° C., 15 min
# T1 sequence (A0A0N9BED7 66-518): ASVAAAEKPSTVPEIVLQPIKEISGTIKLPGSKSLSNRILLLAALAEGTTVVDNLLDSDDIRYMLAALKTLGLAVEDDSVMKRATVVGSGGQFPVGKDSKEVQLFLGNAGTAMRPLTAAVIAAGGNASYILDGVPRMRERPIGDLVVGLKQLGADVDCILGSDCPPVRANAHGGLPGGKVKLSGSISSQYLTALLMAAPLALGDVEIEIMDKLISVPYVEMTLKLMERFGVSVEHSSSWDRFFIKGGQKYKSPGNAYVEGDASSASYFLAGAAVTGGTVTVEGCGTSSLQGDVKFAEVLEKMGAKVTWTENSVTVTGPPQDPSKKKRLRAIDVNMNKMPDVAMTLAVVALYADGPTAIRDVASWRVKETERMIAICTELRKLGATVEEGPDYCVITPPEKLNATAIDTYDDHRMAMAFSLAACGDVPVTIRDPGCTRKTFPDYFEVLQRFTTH
# Experimental: as §1
# EPSPase [4] = target: T2, EPSPase (Ophiopogon japonicus, UniProt A0A0N7E509); assay: Ex-vivo EPSPase activity assay, crude extract; assay type: biochemical; details: 25° C., 15 min
# T2 sequence (A0A0N7E509 64-516): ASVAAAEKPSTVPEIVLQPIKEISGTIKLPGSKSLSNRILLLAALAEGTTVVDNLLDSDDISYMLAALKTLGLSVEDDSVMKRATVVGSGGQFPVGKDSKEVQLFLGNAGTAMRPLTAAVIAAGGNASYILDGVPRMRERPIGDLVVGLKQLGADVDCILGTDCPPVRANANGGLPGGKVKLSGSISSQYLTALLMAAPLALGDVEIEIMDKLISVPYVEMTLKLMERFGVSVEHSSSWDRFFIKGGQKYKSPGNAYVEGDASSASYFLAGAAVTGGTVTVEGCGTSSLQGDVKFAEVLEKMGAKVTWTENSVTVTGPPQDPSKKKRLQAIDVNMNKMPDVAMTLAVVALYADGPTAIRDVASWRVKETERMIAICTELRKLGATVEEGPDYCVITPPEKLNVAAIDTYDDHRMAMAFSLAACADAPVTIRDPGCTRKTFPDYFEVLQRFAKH
# Experimental: as §1
# EPSPase [5] = target: T3, EPSPase (Liriope spicata, UniProt A0A0N9BED5); assay: Ex-vivo EPSPase activity assay, crude extract; assay type: biochemical; details: 25° C., 15 min
# T3 sequence (A0A0N9BED5 66-518): T1 sequence (A0A0N9BED7 66-518) with A74T, S162T, I331V, T404N, G424A
# Experimental: as §1
# [6] = test system: callus of the control Arabidopsis thaliana; assay: Callus growth on glyphosate-containing MS medium, control; assay type: cell-based; details: two weeks, 25° C.
# Experimental: as §2
# [7] = test system: E. Coli BL21 (DE3) transformed with LS-EPSPS-PET; assay: Growth (OD) of E. coli strain transformed with LS-EPSPS-PET in glyphosate-containing LB; assay type: cell-based; details: compared with strain with empty vector PET-28a
# Experimental: The LS-EPSPS gene was cloned into the vector PET-28a, and transferred to E. Coli BL21 (DE3), to obtain a transgenic strain. The reading frame of the transgenic strain was expressed under control of the T7 promoter in the PET system.
# The stain transformed with LS-EPSPS-PET or PET-28a (empty vector, control) was incubated in LB, and grown in an LB liquid medium containing Kan at 37° C. when OD600 reached […], until the OD value reached about 0.4. […] These indicate that the LS-EPSPS gene has glyphosate-resistant/tolerant activity.
smiles,measurement,setting,value
"O=C(O)CNCP(=O)(O)O [glyphosate, N-(phosphonomethyl)glycine]",glyphosate concentration at which EPSPase activity declines obviously,"EPSPase [1]; 25° C., 15 min",500 µmol/L
same,pEC50,"EPSPase [1]; logistic regression, read-out: ED50 for the EPSPase activity",3.25
same,glyphosate concentration at which callus can still normally grow,[2],600 mg/L
same,glyphosate concentration at which callus is inhibited in growth and becomes brown and yellow,[2],800 mg/L
same,glyphosate concentration at which EPSPase activity declines obviously,EPSPase [3],1000 µmol/L
same,glyphosate concentration at which EPSPase activity declines obviously,EPSPase [4],800 µmol/L
same,glyphosate concentration at which EPSPase activity declines obviously,EPSPase [5],1000 µmol/L
same,glyphosate concentration at which callus becomes yellow and gradually mortifies,[6],50 mg·L
same,ED50 value of the strain (logistic regression),[7],greatly higher than that of the strain with the empty vector PET-28a
